Experimental data from patent US20060287375A1 (priority 2003, published 2006).

Key:
Assay type in all cases: in vivo
[1] = test system: Septoria nodorum; assay: Test for control effect on Septoria leaf spot of wheat; conditions: wheat seedlings (Nohrin No. 61), wettable powder at 500 ppm, 10 ml per pot; examined 10 days after inoculation
Excerpt: Test for Control Effect on Septoria Leaf Spot of Wheat
In each of plastic pots of 6 cm in diameter were sown 10 wheat seeds (variety: Nohrin No. 61). They were allowed to germinate in a greenhouse. […] After air-drying, the seedlings were inoculated with pycnospores of Septoria nodorum and the pot was placed in a greenhouse. After 10 days from the inoculation, the total diseased area of all the first leaves in the pot was examined.

[2] = test system: Pyricularia oryzae; conditions: paddy rice (Aichi Asahi), wettable powder on water surface, 1,000 g active ingredient per 10 ares; inoculated 10 days after application, examined 5 days after inoculation
[3] = test system: Pyricularia oryzae; conditions: rice seedlings (Aichi Asahi), wettable powder sprayed at 500 ppm active ingredient, 10 ml per pot; examined 5 days after inoculation

Row | SMILES | Evaluation (total diseased area of all the first leaves) [1] | Evaluation (preventive value, number of lesions of the upper young leaf) [2] | Evaluation (preventive value, number of lesions of the fourth leaf) [3]
1 | O=S1(=O)c2ccccc2C(=S)N1C1CCCC1 [compound 29] | B (Less than 25% of untreated plot) | – | –
2 | O=C(Oc1ccc(Cl)cc1)N1C(=S)c2ccccc2S1(=O)=O [compound 10] | B (Less than 25% of untreated plot) | B (Less than 100 to 80.0 or more) | –
3 | CC(C)OC(=O)N1C(=S)c2ccccc2S1(=O)=O [compound 24] | – | B (Less than 100 to 80.0 or more) | –
4 | CC(C)N1C(=S)c2ccccc2S1(=O)=O [Compound No. 11] | – | B (Less than 100 to 80.0 or more) | –
5 | N#CCN1C(=S)c2ccccc2S1(=O)=O [compound 19] | – | B (Less than 100 to 80.0 or more) | –
6 | O=C(Oc1ccccc1)N1C(=S)c2ccccc2S1(=O)=O [compound 25] | – | B (Less than 100 to 80.0 or more) | –
7 | CCCCOC(=O)N1C(=S)c2ccccc2S1(=O)=O [compound 31] | B (Less than 25% of untreated plot) | B (Less than 100 to 80.0 or more) | –
8 | O=[N+]([O-])CCN1C(=S)c2ccccc2S1(=O)=O [compound 39] | B (Less than 25% of untreated plot) | B (Less than 100 to 80.0 or more) | B (Less than 100 to 80.0 or more)
9 | CSCN1C(=S)c2ccccc2S1(=O)=O [compound 17] | – | B (Less than 100 to 80.0 or more) | –
10 | COC(=O)N1C(=S)c2ccccc2S1(=O)=O [compound 23] | – | B (Less than 100 to 80.0 or more) | –
11 | CC(=O)N1C(=S)c2ccccc2S1(=O)=O [compound 22] | – | B (Less than 100 to 80.0 or more) | –
12 | O=[N+]([O-])CN1C(=S)c2ccccc2S1(=O)=O [compound 20] | – | B (Less than 100 to 80.0 or more) | –
13 | CON1C(=S)c2ccccc2S1(=O)=O [compound 43, 2-methoxy-1,2-benzisothiazoline-3-thioxo-1,1-dioxide] | – | B (Less than 100 to 80.0 or more) | B (Less than 100 to 80.0 or more)
14 | O=S1(=O)c2ccccc2C(=S)N1CCl [compound 45] | – | B (Less than 100 to 80.0 or more) | A (100)
15 | O=C(OCCCl)N1C(=S)c2ccccc2S1(=O)=O [compound 30] | B (Less than 25% of untreated plot) | – | B (Less than 100 to 80.0 or more)
16 | Cc1nnsc1C(=O)OCN1C(=S)c2ccccc2S1(=O)=O [compound 49] | – | – | B (Less than 100 to 80.0 or more)
17 | CCC(=O)N1C(=S)c2ccccc2S1(=O)=O [compound 27] | – | – | B (Less than 100 to 80.0 or more)
18 | O=C(OCN1C(=S)c2ccccc2S1(=O)=O)c1ccccc1 [compound 46, 2-benzoyloxymethyl-1,2-benzisothiazoline-3-thioxo-1,1-dioxide] | – | B (Less than 100 to 80.0 or more) | B (Less than 100 to 80.0 or more)
